Laboratory results reported in paper PMC10825183 (Nature Communications, 2024).

Tests used:
[1] = target: T1, rbHCN4 full-length (FL) (Oryctolagus cuniculus, UniProt Q9TV66); experiment: Whole-cell patch clamp in HEK293T cells, HCN4 full length; assay type: cell-based, rabbit
T1 construct: The cDNA encoding the full-length rabbit HCN4 was previously cloned in pCI (Promega) mammalian expression vector; expressed in transfected cells; host or cells: HEK293T
T1 sequence (Q9TV66 1-1175): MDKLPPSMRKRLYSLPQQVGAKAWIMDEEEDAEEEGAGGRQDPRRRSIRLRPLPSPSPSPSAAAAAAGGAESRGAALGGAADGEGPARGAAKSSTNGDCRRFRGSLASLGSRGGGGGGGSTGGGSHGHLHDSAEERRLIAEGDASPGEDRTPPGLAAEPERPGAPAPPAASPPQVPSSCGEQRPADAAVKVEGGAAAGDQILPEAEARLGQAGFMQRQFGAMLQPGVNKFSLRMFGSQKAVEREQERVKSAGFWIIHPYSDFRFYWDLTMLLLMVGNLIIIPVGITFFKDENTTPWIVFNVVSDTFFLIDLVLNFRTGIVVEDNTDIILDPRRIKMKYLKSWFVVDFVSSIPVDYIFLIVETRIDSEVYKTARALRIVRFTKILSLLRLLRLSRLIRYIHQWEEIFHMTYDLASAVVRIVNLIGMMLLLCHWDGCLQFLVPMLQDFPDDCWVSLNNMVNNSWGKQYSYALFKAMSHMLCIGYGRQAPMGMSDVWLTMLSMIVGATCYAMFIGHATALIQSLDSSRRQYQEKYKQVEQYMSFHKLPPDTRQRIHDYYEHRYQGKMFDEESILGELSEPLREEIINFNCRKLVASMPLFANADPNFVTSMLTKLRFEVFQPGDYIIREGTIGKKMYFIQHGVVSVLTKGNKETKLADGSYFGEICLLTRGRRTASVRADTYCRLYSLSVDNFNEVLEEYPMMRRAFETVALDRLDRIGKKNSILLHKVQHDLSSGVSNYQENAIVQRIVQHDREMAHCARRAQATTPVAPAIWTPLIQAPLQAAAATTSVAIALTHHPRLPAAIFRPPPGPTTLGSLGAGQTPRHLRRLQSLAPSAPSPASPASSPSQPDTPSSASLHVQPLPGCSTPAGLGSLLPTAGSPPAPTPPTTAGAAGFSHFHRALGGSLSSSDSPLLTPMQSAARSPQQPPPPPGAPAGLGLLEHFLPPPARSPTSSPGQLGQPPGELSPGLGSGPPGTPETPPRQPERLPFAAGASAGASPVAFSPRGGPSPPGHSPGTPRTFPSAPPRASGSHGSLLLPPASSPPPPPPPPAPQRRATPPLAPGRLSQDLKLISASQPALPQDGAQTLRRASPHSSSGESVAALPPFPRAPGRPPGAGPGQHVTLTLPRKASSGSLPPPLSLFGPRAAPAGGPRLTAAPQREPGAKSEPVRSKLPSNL

[2] = target: hHCN2 CNBD D698A (Homo sapiens, UniProt Q9UL51, D698A); details: cAMP titrant
[3] = target: hHCN2 CNBD R662A (Homo sapiens, UniProt Q9UL51, R662A); details: cAMP titrant
[4] = tested on: native If current in sinoatrial node myocytes; details: read-out: affinity value for cAMP; ref DiFrancesco and Tortora, Nature, 1991; cited from earlier work

Chain of hHCN2 CNBD R662A (Q9UL51 521-706 R662A): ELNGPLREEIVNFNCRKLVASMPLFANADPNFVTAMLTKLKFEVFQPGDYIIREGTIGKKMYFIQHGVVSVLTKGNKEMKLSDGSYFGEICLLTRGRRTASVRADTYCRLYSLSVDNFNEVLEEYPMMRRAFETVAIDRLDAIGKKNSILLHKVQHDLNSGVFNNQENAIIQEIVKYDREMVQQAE
Chain of hHCN2 CNBD D698A (Q9UL51 521-706 D698A): as the sequence (Q9UL51 521-706 R662A) above, with A142R, D178A counted along it

SMILES: Nc1ncnc2c1ncn2[C@@H]1O[C@@H]2COP(=O)(O)O[C@H]2[C@H]1O [cAMP, Adenosine 3′,5′-cyclic monophosphate]
- V1/2 with cAMP ([1]; 1 µM cAMP in pipette, mean ± SEM): -89.9 ± 1.6 mV
- k (inverse slope factor) with cAMP ([1]; 1 µM cAMP, mean ± SEM): 11.7 ± 1 mV
- V1/2 with cAMP ([1]; 5 µM cAMP in pipette, mean ± SEM): -87.5 ± 0.7 mV
- k (inverse slope factor) with cAMP ([1]; 5 µM cAMP, mean ± SEM): 10.6 ± 0.4 mV
- V1/2 + cAMP ([1]; 15 µM cAMP in pipette, mean ± SEM): -79.3 ± 0.9 mV
- k + cAMP ([1]; 15 µM cAMP, mean ± SEM): 10.2 ± 1 mV
- Hill coefficient (nH) ([1]; Hill fit of shift in V1/2 vs cAMP concentration): 0.9
- stoichiometry (N) ([2]; mean ± SEM, n = 3): 0.8 ± 0.1
- N, representative sample (Fig. 4d) ([2]; single ITC experiment): 0.7
- stoichiometry (N) ([3]; mean ± SEM, n = 3): 0.9 ± 0.1
- N, representative sample (Fig. 4d) ([3]; single ITC experiment): 0.7
- EC50 [4]: 200 nM
